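48-hour exposure; five concentrations; linearly interpolated endpoints. Here, GI50 denotes the concentration required for 50% inhibition of growth.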 The source made the active and inactive calls. No stated cut-off is given here; in the data, active = GI50 up to about 1.1 µM and inactive = higher.
How the values were obtained:
Experiment in all cases: NCI anticancer screen, dose series, 48 h
KM-20L2 = test system: KM-20L2
M19-MEL = test system: M19-MEL
HOP-18 = test system: HOP-18
SNB-78 = test system: SNB-78
DMS-273 = test system: DMS-273
XF498 = test system: XF498
DLD-1 = test system: DLD-1
LXFL 529 = test system: LXFL 529
RXF 631 = test system: RXF 631

Measured: GI50

O=NN(CCCl)C(=O)N[C@H]1CC[C@@H](CC(=O)O)CC1
inactive: KM-20L2 > 100 µM | M19-MEL > 100 µM | HOP-18 > 100 µM | SNB-78 > 100 µM | DMS-273 > 100 µM | XF498 > 100 µM | DLD-1 > 100 µM

COc1ccc(C2S/C(=C\c3ccc(O)cc3)C(=O)N2NC(=O)Cc2ccccc2)cc1 (stereo unspecified)
inactive: M19-MEL > 100 µM | HOP-18 > 100 µM | DMS-273 > 100 µM | LXFL 529 > 100 µM | DLD-1 > 100 µM

COC[C@@H]1Cc2cc(OC)c3c(c2[C@H](c2ccc(OC)c(OC)c2)[C@H]1COC)OCO3 [HYPOPHYLLANTHIN]
inactive: KM-20L2 > 100 µM | RXF 631 > 100 µM | M19-MEL > 100 µM | HOP-18 > 100 µM | DMS-273 > 100 µM | LXFL 529 > 100 µM | XF498 19.1 µM | DLD-1 47.3 µM

CCOC(=O)C1=C(C)N(NC(=O)OC)C2(N)N(NC(=O)OC)C(C)=C(C(=O)OCC)C12C#N (stereo unspecified)
inactive: KM-20L2 > 100 µM | M19-MEL > 100 µM | DMS-273 > 100 µM | LXFL 529 > 100 µM | XF498 > 100 µM | DLD-1 > 100 µM

C=CCC12CC(=O)CCC1CC(=O)C2 (stereo unspecified)
inactive: KM-20L2 > 100 µM | M19-MEL > 100 µM | HOP-18 > 100 µM | SNB-78 > 100 µM | DMS-273 > 100 µM | LXFL 529 > 100 µM | DLD-1 > 100 µM

O=C(c1ccccc1)c1ccc2cccc(OC3OC(CO)C(O)C(O)C3O)c2n1 (stereo unspecified)
inactive: KM-20L2 > 100 µM | HOP-18 > 100 µM | SNB-78 > 100 µM | DMS-273 > 100 µM | LXFL 529 > 100 µM | XF498 > 100 µM | DLD-1 > 100 µM

OCC1O[C@H](O[C@@H]2CCCN3CC(O)C(O)[C@@H]23)C(O)C(O)C1O (stereo partly specified)
inactive: KM-20L2 > 100 µM | RXF 631 > 100 µM | M19-MEL > 100 µM | HOP-18 > 100 µM | SNB-78 > 100 µM | DMS-273 > 100 µM | LXFL 529 > 100 µM | DLD-1 > 100 µM

COc1cc(C2c3cc4c(cc3[C@@H](Nc3ccc(C(=O)O)cc3)C3COC(=O)[C@H]23)OCO4)cc(OC)c1O (stereo partly specified)
inactive: M19-MEL 15.7 µM | SNB-78 10.7 µM | DMS-273 7.16 µM | LXFL 529 11 µM

O=C(O)CNS(=O)(=O)c1ccc(NC(=O)c2ccc([N+](=O)[O-])cc2)cc1
inactive: KM-20L2 > 100 µM | RXF 631 > 100 µM | M19-MEL > 100 µM | HOP-18 > 100 µM | DMS-273 > 100 µM | LXFL 529 > 100 µM | XF498 > 100 µM | DLD-1 > 100 µM

CCNC1=Nc2ccccc2-n2c(nn3nc4ccccc4c23)N1CC
inactive: KM-20L2 > 100 µM | M19-MEL > 100 µM | HOP-18 > 100 µM | DMS-273 > 100 µM | LXFL 529 > 100 µM | DLD-1 > 100 µM

CON(C)C(=O)CCCO
inactive: KM-20L2 > 100 µM | RXF 631 > 100 µM | M19-MEL > 100 µM | HOP-18 > 100 µM | LXFL 529 > 100 µM | XF498 > 100 µM | DLD-1 > 100 µM

O=C(/C=C/C1C(=O)NC(=O)NC1=O)CC(=O)C(=O)Nc1cc(Cl)c(Cl)cc1Cl
inactive: KM-20L2 > 100 µM | M19-MEL > 100 µM | HOP-18 > 100 µM | SNB-78 > 100 µM | DMS-273 > 100 µM | LXFL 529 > 100 µM | XF498 > 100 µM | DLD-1 > 100 µM

CC1OC(OCC2OC(Oc3c(-c4ccc(O)cc4)oc4cc(O)cc(O)c4c3=O)C(OC3OC(C)C(O)C(O)C3O)C(O)C2O)C(O)C(O)C1O (stereo unspecified)
inactive: KM-20L2 > 100 µM | RXF 631 > 100 µM | M19-MEL > 72.4 µM | HOP-18 > 100 µM | SNB-78 > 100 µM | DMS-273 > 84.1 µM | LXFL 529 > 100 µM | XF498 > 100 µM | DLD-1 > 100 µM

Cc1ccc(C2C(Cl)C(=O)N2n2cnc3ccccc3c2=O)cc1 (stereo unspecified)
inactive: KM-20L2 > 100 µM | M19-MEL > 100 µM | HOP-18 18.1 µM | SNB-78 > 100 µM | DMS-273 > 100 µM | LXFL 529 > 100 µM | XF498 > 100 µM | DLD-1 > 100 µM

CCN1C(C)=NC2C(=O)c3ccccc3C(=O)C21 (stereo unspecified)
inactive: KM-20L2 27.2 µM | RXF 631 > 100 µM | M19-MEL 34.8 µM | DMS-273 48.6 µM | LXFL 529 94.4 µM | XF498 42.5 µM

CC(C)N(C(=O)C12C3C4C1C1C4(C#N)C3C12C#N)C(C)C (stereo unspecified)
inactive: KM-20L2 > 100 µM | RXF 631 > 100 µM | M19-MEL > 100 µM | HOP-18 > 100 µM | SNB-78 > 100 µM | LXFL 529 > 100 µM | XF498 > 100 µM | DLD-1 > 100 µM

C[C@@H]1CC2(C[C@@H](C)C3[C@@H](CC4(C)CCCC5C6=CC(O)(CC[C@]34C)OC6=CC(=O)OC5(C)C)O2)OC1=O (stereo partly specified)
inactive: HOP-18 > 100 µM | DMS-273 > 100 µM | LXFL 529 > 100 µM | XF498 > 100 µM | DLD-1 > 100 µM

COc1ccc(C(=O)C(C(=O)CCC(=O)Nc2cccc(C(F)(F)F)c2)c2ccccc2)cc1 (stereo unspecified)
inactive: KM-20L2 > 100 µM | M19-MEL 67.5 µM | HOP-18 > 100 µM | SNB-78 > 100 µM | DMS-273 > 100 µM | LXFL 529 62.2 µM | XF498 54.1 µM | DLD-1 > 100 µM

CC(=O)N/C(=C\c1ccccc1/C=C(\NC(C)=O)c1nc2cc(C)c(C)cc2[nH]1)c1nc2cc(C)c(C)cc2[nH]1
inactive: KM-20L2 29.4 µM | M19-MEL 10.7 µM | SNB-78 10.7 µM | DMS-273 2.56 µM | LXFL 529 17.1 µM | XF498 15.6 µM | DLD-1 19.2 µM

CCC(=O)O[C@@H]1C2C(OC(C)=O)C34COC(C)([C@@H]3C3C(C[C@]3(C)OC(C)=O)[C@@H](OC(=O)c3ccccc3)C4=O)[C@H](OC(C)=O)[C@@]2(OC(C)=O)C[C@@H]1C (stereo partly specified)
inactive: KM-20L2 > 100 µM | RXF 631 86.1 µM | M19-MEL 32.8 µM | HOP-18 > 100 µM | SNB-78 5.5 µM | DMS-273 44.1 µM | LXFL 529 34.9 µM | DLD-1 > 100 µM

COc1ccc(OC)c2c1CC(C(=O)O)(C(=O)O)CC2=O
inactive: KM-20L2 > 100 µM | SNB-78 > 100 µM | LXFL 529 > 100 µM

CC1(O)C=CC2CCC1C2O (stereo unspecified)
inactive: KM-20L2 50.9 µM | M19-MEL > 100 µM | HOP-18 > 100 µM | SNB-78 > 100 µM | DMS-273 55.6 µM | LXFL 529 78.9 µM | XF498 > 100 µM | DLD-1 58.7 µM

From ChEMBL document CHEMBL1201862, “PubChem BioAssay data set” (2004)
